Experimental data: US20190328691A1, “ANTIBIOTIC THERAPY” (Boulos & Cooper Pharmaceuticals Pty Ltd, priority 2015, published 2019)
Several values for one entry are separate records, joined by “and”; a condition that tells them apart may be missing. Equal values may be shown once. Read-outs that look alike come from different tables or passages of the source.

What was measured:
[1] = test system: Staphylococcus aureus (ATCC 29213); test: Checkerboard combination / MIC assay with S. aureus ATCC 29213; format: cell-based; conditions: S. aureus ATCC 29213; for MIC: Staphylococcus aureus, read-out: MIC of antibiotic alone
Protocol: (§1) Colonies were suspended in PBS. The absorbance of each suspension was measured with a spectrophotometer, and then the suspension was adjusted to 1×10^6 CFU/mL. The testing inoculum was prepared within 20 minutes before adding to wells of the test plate. Final cellular density in the checkerboard assays was 5×10^5 CFU/mL.
(§2) The combination effect of antibacterial substances administered together was evaluated by an in vitro checkerboard combination method with Staphylococcus aureus (ATCC 29213) and Staphylococcus aureus (BAA-1717). Ramizol and Chlopam were tested alone in 11 points by two-fold serial titration and in combination with different commercial antibiotics which were tested in a 7-point titration alone and in combination with Ramizol and Chlopam using the checkerboard technique as recommended by the Clinical & Laboratory Standards Institute (CLSI. Methods for Dilution In Antimicrobial Susceptibility Tests for Bacteria That Grow Aerobically; Approved Standard-Eighth Edition. CLSI document M07-A8 (ISBN 1-56238-689-1). Vol. 29 No. 2. Clinical and Laboratory Standards Institute, USA, 2009). The commercial antibiotics were also tested alone. Twenty-four checkerboard tests were performed.
(§3) The starting concentration of Ramizol, Chlopam, and the commercial antibiotics was four fold of the MIC. The testing range for each combination was described in the following summary tables.
(§4) Compound dilutions of Ramizol and Chlopam were performed in 100% DMSO and the final DMSO concentration in all test wells was 2%. Growth control wells also included 2% DMSO. CLSI protocol was followed for medium, inoculum preparation, and endpoint reading. The commercial antibiotics were dissolved and diluted in the CLSI specified diluent. The final inoculum count for each strain was 5×10^5 CFU/mL.
Cefepime, Daptomycin, Linezolid, Mupirocin, Oxacillin and Vancomycin were also tested alone. Each test substance was dissolved and diluted in 100% DMSO or specified solvent. Each test substance dilution (2 μL) was added to 96 μL broth CAMHB. CAMHB seeded with S. aureus ATCC 29213 at 1×10^6 CFU/mL (100 μL) was then added to the plate to generate a final cell count at 5×10^5 CFU/mL.
(§5) Assay plates were incubated and MIC endpoints were read as described in the MIC assay. FIC (Fraction Inhibitory Concentration) and FIC Index (FICI) values for each test condition and the average of FICI values of all pairwise combinations were calculated to determine if synergy or antagonism existed between the two substances. The FIC index was determined by calculating the sum of the ratios of MICs for both substances. Arithmetically, the FIC Index of a combination of Substance 1 and Substance 2 was defined as following: FICI=Σ[FIC(Substance 1)+FIC(Substance 2)]=[(MIC of Substance 1 in combination/MIC of Substance 1 alone)+(MIC of Substance 2 in combination/MIC of Substance 2 alone)]. Synergy is defined as the FICI (Σ)≤0.5; additivity as FICI (Σ)>0.5 to ≤1; indifference as FICI (Σ)>1 to ≤4; antagonism is defined as the FICI (Σ)>4 (Zinner and Blaser, J. Journal of Antimicrobial Chemotherapy (1986), 17, 1-5; Amin, et al BMC Complementary & Alternative Medicine (2015), 15, 59; Zuo, et al. Molecules (2011), 16, 9819-9826).

[2] = test system: Staphylococcus aureus (BAA-1717); test: Checkerboard combination / MIC assay with S. aureus BAA-1717 (MRSA); format: cell-based; conditions: for MIC: Staphylococcus aureus, ATCC BAA-1717 / BAA-1717, read-out: MIC of antibiotic alone
Protocol: as §1, §2, §3, §4
Each test substance was dissolved and diluted in 100% DMSO or specified solvent. Each test substance dilution (2 μL) was added to 96 μL broth CAMHB. CAMHB seeded with S. aureus BAA-1717 at 1×10^6 CFU/mL (100 μL) was then added to the plate to generate a final cell count at 5×10^5 CFU/mL.
as §5

[3] = ATCC29213, Table 4, checkerboard series with Chlopam
[4] = ATCC29213, Table 7, checkerboard series with Ramizol

O=C(O)Cc1ccc(/C=C/c2cc(/C=C/c3ccc(CC(=O)O)cc3)cc(/C=C/c3ccc(CC(=O)O)cc3)c2)cc1 [Chlopam, 2,2′,2″-{[(1E,1′E,1″E)-benzene-1,3,5-triyltris(ethene-2,1-diyl)]tris(benzene-4,1-diyl)}triacetic acid]
MIC [1, 3]: 0.5 µg/mL
MIC ([2]; Table 4, checkerboard series with Chlopam, S. aureus ATCC BAA-1717): 1 µg/mL

Cc1onc(-c2ccccc2)c1C(=O)N[C@@H]1C(=O)N2[C@@H]1SC(C)(C)[C@@H]2C(=O)O [Oxacillin]
FICI of combination with Chlopam ([1]; Chlopam 0.003906 μg/mL + labelled antibiotic at MIC of same cell): 1.0
MIC of antibiotic in combination with Chlopam ([1]; Chlopam 0.003906 μg/mL): 0.5 µg/mL
FICI of combination with Chlopam ([1]; Chlopam 0.0078125 μg/mL + labelled antibiotic at MIC of same cell): 1.0
MIC of antibiotic in combination with Chlopam ([1]; Chlopam 0.0078125 μg/mL): 0.5 µg/mL
FICI of combination with Chlopam ([1]; Chlopam 0.015625 μg/mL + labelled antibiotic at MIC of same cell): 1.0
MIC of antibiotic in combination with Chlopam ([1]; Chlopam 0.015625 μg/mL): 0.5 µg/mL
FICI of combination with Chlopam ([1]; Chlopam 0.125 μg/mL + labelled antibiotic at MIC of same line): 0.5 and 0.8
MIC of antibiotic in combination with Chlopam ([1]; Chlopam 0.125 μg/mL): 0.125 µg/mL and 0.25 µg/mL
FICI of combination with Chlopam ([1]; Chlopam 0.25 μg/mL + labelled antibiotic at MIC of same cell): 0.8
MIC of antibiotic in combination with Chlopam ([1]; Chlopam 0.25 μg/mL): 0.125 µg/mL
FICI of combination with Chlopam ([1]; Chlopam 0.5 μg/mL + labelled antibiotic at MIC of same cell): 1.0
MIC of antibiotic in combination with Chlopam ([1]; Chlopam 0.5 μg/mL): 0.01563 µg/mL
Effect of individual antibiotic combinations of lower concentrations ([1]; Chlopam and Oxacillin: 0.0125 and 0.125 μg/mL): synergistic effect
FICI of combination with Ramizol ([1]; Ramizol 0.015625 μg/mL + labelled antibiotic at MIC of same cell): 1.0
MIC of antibiotic in combination with Ramizol ([1]; Ramizol 0.015625 μg/mL): 0.5 µg/mL
FICI of combination with Ramizol ([1]; Ramizol 0.03125 μg/mL + labelled antibiotic at MIC of same cell): 1.0
MIC of antibiotic in combination with Ramizol ([1]; Ramizol 0.03125 μg/mL): 0.5 µg/mL
FICI of combination with Ramizol ([1]; Ramizol 0.0625 μg/mL + labelled antibiotic at MIC of same cell): 1.0
MIC of antibiotic in combination with Ramizol ([1]; Ramizol 0.0625 μg/mL): 0.5 µg/mL
FICI of combination with Ramizol ([1]; Ramizol 0.125 μg/mL + labelled antibiotic at MIC of same cell): 1.0
MIC of antibiotic in combination with Ramizol ([1]; Ramizol 0.125 μg/mL): 0.5 µg/mL
FICI of combination with Ramizol ([1]; Ramizol 4 μg/mL + labelled antibiotic at MIC of same cell): 1.0
MIC of antibiotic in combination with Ramizol ([1]; Ramizol 4 μg/mL): 0.016 µg/mL
MIC [1, 3]: 0.5 µg/mL
MIC [1, 4]: 0.5 µg/mL
Effect of the combinations with Chlopam (by mean FICI) ([1]; labelled antibiotic + Chlopam): additive effect
mean FICI of combination with Chlopam ([1]; labelled antibiotic + Chlopam, mean of all pairwise combinations): 1.0
mean FICI of combination with Ramizol ([1]; labelled antibiotic + Ramizol, mean of all pairwise combinations): 1.2
FICI of combination with Chlopam ([2]; Chlopam 0.001953 μg/mL + labelled antibiotic at MIC of same cell, S. aureus ATCC BAA-1717): 1.0
FICI of combination with Chlopam ([2]; Chlopam 0.003906 μg/mL + labelled antibiotic at MIC of same cell, S. aureus ATCC BAA-1717): 1.0
FICI of combination with Chlopam ([2]; Chlopam 0.0078125 μg/mL + labelled antibiotic at MIC of same cell, S. aureus ATCC BAA-1717): 1.0
FICI of combination with Ramizol ([2]; Ramizol 0.015625 μg/mL + labelled antibiotic at MIC of same cell, S. aureus ATCC BAA-1717): 1.0
FICI of combination with Ramizol ([2]; Ramizol 0.03125 μg/mL + labelled antibiotic at MIC of same cell, S. aureus ATCC BAA-1717): 1.0
FICI of combination with Ramizol ([2]; Ramizol 0.0625 μg/mL + labelled antibiotic at MIC of same cell, S. aureus ATCC BAA-1717): 1.0
mean FICI of combination with Chlopam ([2]; labelled antibiotic + Chlopam, mean of all pairwise combinations, S. aureus ATCC BAA-1717): 1.2
Effect of the combinations with Ramizol (by mean FICI) ([2]; labelled antibiotic + Ramizol, S. aureus BAA-1717): additive effect
mean FICI of combination with Ramizol ([2]; labelled antibiotic + Ramizol, mean of all pairwise combinations, S. aureus ATCC BAA-1717): 0.9

O=C(O)c1ccc(/C=C/c2cc(/C=C/c3ccc(C(=O)O)cc3)cc(/C=C/c3ccc(C(=O)O)cc3)c2)cc1 [Ramizol, 1,3,5-Tris[(1E)-2′-(4″-benzoic acid)vinyl]benzene]
MIC [1, 4]: 4 µg/mL
MIC ([2]; Table 7, checkerboard series with Ramizol, S. aureus ATCC BAA-1717): 4 µg/mL
